Data from ChEMBL document CHEMBL3885881, “DrugMatrix”.
Several values for one entry are separate records, joined by “and”; a condition that tells them apart may be missing. Equal entries are not always repeated.

Species: Rattus norvegicus
Assay: DrugMatrix - Regimen: Daily Repeat
Assay type: toxicity, organism-based, Sprague-Dawley
Parameters: regimen Daily Repeat, gender Male, age 6-8 weeks
Conditions: in vivo, ip, route intraperitoneal, vehicle 100 % SALINE; for ABSOLUTE BASOPHIL / ABSOLUTE EOSINOPHIL / ABSOLUTE LYMPHOCYTE / ABSOLUTE MONOCYTE / ABSOLUTE SEGMENTED NEUTROPHIL / BASOPHIL / EOSINOPHIL / ERYTHROCYTE COUNT / HEMATOCRIT / HEMOGLOBIN / LEUKOCYTE COUNT / LYMPHOCYTE / MEAN CORPUSCULAR HEMOGLOBIN / MEAN CORPUSCULAR HEMOGLOBIN CONCENTRATION / MEAN CORPUSCULAR VOLUME / MONOCYTE / NEUTROPHIL / PLATELET COUNT: tissue Blood; for ALANINE AMINOTRANSFERASE / ALBUMIN / ALKALINE PHOSPHATASE / ASPARTATE AMINOTRANSFERASE / BLOOD UREA NITROGEN / CARBON DIOXIDE / CHLORIDE / CHOLESTEROL / CREATINE PHOSPHOKINASE / CREATININE / GLUCOSE / LACTATE DEHYDROGENASE / LIPASE / PHOSPHORUS / POTASSIUM / SODIUM / TOTAL BILIRUBIN / TOTAL PROTEIN / URIC ACID: tissue Plasma
[1] = 0 mg/kg, 120 h, dose level Control, time 5 day
[2] = 0 mg/kg, […], dose level Control, time 14 day
[3] = 0 mg/kg, […], dose level Control, time 28 day
[4] = 40 mg/kg, 120 h, dose level High, time 5 day
[5] = 40 mg/kg, […], dose level High, time 14 day
[6] = 40 mg/kg, […], dose level High, time 28 day

CCN[C@@H]1C[C@H](N)[C@@H](O[C@H]2OC(CN)=CC[C@H]2N)[C@H](O)[C@H]1O[C@H]1OC[C@](C)(O)[C@H](NC)[C@H]1O [NETILMICIN]
ABSOLUTE BASOPHIL [1]: 32 cells/µL
ABSOLUTE EOSINOPHIL [1]: 110 cells/µL
ABSOLUTE LYMPHOCYTE [1]: 6630 cells/µL
ABSOLUTE MONOCYTE [1]: 140 cells/µL
ABSOLUTE SEGMENTED NEUTROPHIL [1]: 1170 cells/µL
BASOPHIL [1]: 0.38% and 0.35%
EOSINOPHIL [1]: 1.28% and 0.62%
ERYTHROCYTE COUNT [1]: 7.45 x10E6/uL and 7.26 x10E6/uL
HEMATOCRIT [1]: 45.74% and 47.97%
HEMOGLOBIN [1]: 14.72 G/DL and 15.38 G/DL
LEUKOCYTE COUNT [1]: 8.11 x10E3/uL and 8.68 x10E3/uL
LYMPHOCYTE [1]: 81.3% and 86.77%
MEAN CORPUSCULAR HEMOGLOBIN [1]: 19.76 pg and 21.18 pg
MEAN CORPUSCULAR HEMOGLOBIN CONCENTRATION [1]: 32.16 G/DL and 32.05 G/DL
MEAN CORPUSCULAR VOLUME [1]: 61.38 fL and 66.15 fL
MONOCYTE [1]: 1.76% and 1.57%
NEUTROPHIL [1]: 14.9% and 9.53%
PLATELET COUNT [1]: 1322.4 x10E3/uL and 1786 x10E3/uL
ALANINE AMINOTRANSFERASE [1]: 25.8 u/L and 20.5 u/L
ALBUMIN [1]: 3.64 G/DL and 4.35 G/DL
ALKALINE PHOSPHATASE [1]: 233.6 u/L and 300 u/L
ASPARTATE AMINOTRANSFERASE [1]: 81.4 u/L and 86.75 u/L
BLOOD UREA NITROGEN [1]: 14.4 mg/dL and 17 mg/dL
CARBON DIOXIDE [1]: 29 mmol/L
CHLORIDE [1]: 105.6 MEQ/L and 106.25 MEQ/L
CHOLESTEROL [1]: 69.2 mg/dL and 51.25 mg/dL
CREATINE PHOSPHOKINASE [1]: 384.75 u/L
CREATININE [1]: 0.56 mg/dL and 0.47 mg/dL
GLUCOSE [1]: 125.4 mg/dL and 128.75 mg/dL
LACTATE DEHYDROGENASE [1]: 105.4 u/L and 145 u/L
LIPASE [1]: 22.4 u/L and 13.25 u/L
PHOSPHORUS [1]: 11.48 mg/dL and 11.8 mg/dL
POTASSIUM [1]: 5.52 MEQ/L and 6.58 MEQ/L
SODIUM [1]: 147 MEQ/L and 151 MEQ/L
TOTAL BILIRUBIN [1]: 0.2 mg/dL and 0.33 mg/dL
TOTAL PROTEIN [1]: 6.1 G/DL and 6.53 G/DL
URIC ACID [1]: 1.06 mg/dL and 1.95 mg/dL
ABSOLUTE BASOPHIL [2]: 130 cells/µL
ABSOLUTE EOSINOPHIL [2]: 140 cells/µL
ABSOLUTE LYMPHOCYTE [2]: 13500 cells/µL
ABSOLUTE MONOCYTE [2]: 400 cells/µL
ABSOLUTE SEGMENTED NEUTROPHIL [2]: 2330 cells/µL
HEMATOCRIT [2]: 45.98%
ABSOLUTE BASOPHIL [3]: 91 cells/µL
ABSOLUTE EOSINOPHIL [3]: 110 cells/µL
ABSOLUTE LYMPHOCYTE [3]: 9910 cells/µL
ABSOLUTE MONOCYTE [3]: 210 cells/µL
ABSOLUTE SEGMENTED NEUTROPHIL [3]: 1560 cells/µL
BASOPHIL [3]: 0.77%
EOSINOPHIL [3]: 0.92%
ERYTHROCYTE COUNT [3]: 8.21 x10E6/uL
HEMATOCRIT [3]: 47.53%
HEMOGLOBIN [3]: 15.65 G/DL
LEUKOCYTE COUNT [3]: 11.91 x10E3/uL
LYMPHOCYTE [3]: 83.34%
MEAN CORPUSCULAR HEMOGLOBIN [3]: 19.07 pg
MEAN CORPUSCULAR HEMOGLOBIN CONCENTRATION [3]: 32.93 G/DL
MEAN CORPUSCULAR VOLUME [3]: 57.9 fL
MONOCYTE [3]: 1.68%
NEUTROPHIL [3]: 12.97%
PLATELET COUNT [3]: 1323.8 x10E3/uL
CARBON DIOXIDE [2]: 25 mmol/L
ALANINE AMINOTRANSFERASE [3]: 30 u/L
ALBUMIN [3]: 3.71 G/DL
ALKALINE PHOSPHATASE [3]: 186.8 u/L
ASPARTATE AMINOTRANSFERASE [3]: 78.2 u/L
BLOOD UREA NITROGEN [3]: 14.2 mg/dL
CHLORIDE [3]: 105.4 MEQ/L
CHOLESTEROL [3]: 44.9 mg/dL
CREATINE PHOSPHOKINASE [3]: 334.3 u/L
CREATININE [3]: 0.6 mg/dL
GLUCOSE [3]: 147.2 mg/dL
LACTATE DEHYDROGENASE [3]: 123.1 u/L
LIPASE [3]: 9.6 u/L
PHOSPHORUS [3]: 10.01 mg/dL
POTASSIUM [3]: 6.57 MEQ/L
SODIUM [3]: 149.5 MEQ/L
TOTAL BILIRUBIN [3]: 0.21 mg/dL
TOTAL PROTEIN [3]: 6.66 G/DL
URIC ACID [3]: 1.26 mg/dL
ABSOLUTE BASOPHIL [4]: 100 cells/µL
ABSOLUTE EOSINOPHIL [4]: 100 cells/µL
ABSOLUTE LYMPHOCYTE [4]: 9410 cells/µL
ABSOLUTE MONOCYTE [4]: 270 cells/µL
ABSOLUTE SEGMENTED NEUTROPHIL [4]: 2070 cells/µL
BASOPHIL [4]: 0.82% and 0.23%
EOSINOPHIL [4]: 0.84% and 0.53%
ERYTHROCYTE COUNT [4]: 7.28 x10E6/uL and 7.2 x10E6/uL
HEMATOCRIT [4]: 44.78% and 47.4%
HEMOGLOBIN [4]: 14.6 G/DL and 14.93 G/DL
LEUKOCYTE COUNT [4]: 12 x10E3/uL and 6.78 x10E3/uL
LYMPHOCYTE [4]: 78.86% and 87.63%
MEAN CORPUSCULAR HEMOGLOBIN [4]: 20.02 pg and 20.77 pg
MEAN CORPUSCULAR HEMOGLOBIN CONCENTRATION [4]: 32.56 G/DL and 31.5 G/DL
MEAN CORPUSCULAR VOLUME [4]: 61.44 fL and 65.9 fL
MONOCYTE [4]: 2.18% and 1.53%
NEUTROPHIL [4]: 16.76% and 9.17%
PLATELET COUNT [4]: 1295.4 x10E3/uL and 1697.67 x10E3/uL
ALANINE AMINOTRANSFERASE [4]: 28.4 u/L and 20.25 u/L
ALBUMIN [4]: 3.44 G/DL and 4.28 G/DL
ALKALINE PHOSPHATASE [4]: 235.6 u/L and 305.25 u/L
ASPARTATE AMINOTRANSFERASE [4]: 91.8 u/L and 87.25 u/L
BLOOD UREA NITROGEN [4]: 12 mg/dL and 14.25 mg/dL
CARBON DIOXIDE [4]: 24.75 mmol/L
CHLORIDE [4]: 108.2 MEQ/L and 108.25 MEQ/L
CHOLESTEROL [4]: 53.8 mg/dL and 53 mg/dL
CREATINE PHOSPHOKINASE [4]: 194.6 u/L and 310.75 u/L
CREATININE [4]: 0.5 mg/dL and 0.47 mg/dL
GLUCOSE [4]: 137 mg/dL and 119.5 mg/dL
LACTATE DEHYDROGENASE [4]: 83.75 u/L and 121.25 u/L
LIPASE [4]: 16 u/L and 7 u/L
PHOSPHORUS [4]: 10.04 mg/dL and 12.5 mg/dL
POTASSIUM [4]: 6.52 MEQ/L and 5.8 MEQ/L
SODIUM [4]: 151.2 MEQ/L and 152.75 MEQ/L
TOTAL BILIRUBIN [4]: 0.12 mg/dL and 0.28 mg/dL
TOTAL PROTEIN [4]: 5.86 G/DL and 6.35 G/DL
URIC ACID [4]: 1.12 mg/dL and 2.02 mg/dL
ABSOLUTE BASOPHIL [5]: 76 cells/µL
ABSOLUTE EOSINOPHIL [5]: 100 cells/µL
ABSOLUTE LYMPHOCYTE [5]: 7150 cells/µL
ABSOLUTE MONOCYTE [5]: 160 cells/µL
ABSOLUTE SEGMENTED NEUTROPHIL [5]: 980 cells/µL
ABSOLUTE BASOPHIL [6]: 110 cells/µL
ABSOLUTE EOSINOPHIL [6]: 110 cells/µL
ABSOLUTE LYMPHOCYTE [6]: 11000 cells/µL
ABSOLUTE MONOCYTE [6]: 220 cells/µL
ABSOLUTE SEGMENTED NEUTROPHIL [6]: 1680 cells/µL
BASOPHIL [6]: 0.84%
EOSINOPHIL [6]: 0.81%
ERYTHROCYTE COUNT [6]: 8.07 x10E6/uL
HEMATOCRIT [6]: 45.66%
HEMOGLOBIN [6]: 15.06 G/DL
LEUKOCYTE COUNT [6]: 13.21 x10E3/uL
LYMPHOCYTE [6]: 83.38%
MEAN CORPUSCULAR HEMOGLOBIN [6]: 18.66 pg
MEAN CORPUSCULAR HEMOGLOBIN CONCENTRATION [6]: 32.99 G/DL
MEAN CORPUSCULAR VOLUME [6]: 56.56 fL
MONOCYTE [6]: 1.71%
NEUTROPHIL [6]: 12.78%
PLATELET COUNT [6]: 1402.4 x10E3/uL
CARBON DIOXIDE [5]: 27 mmol/L
ALANINE AMINOTRANSFERASE [6]: 27.9 u/L
ALBUMIN [6]: 3.58 G/DL
ALKALINE PHOSPHATASE [6]: 144.2 u/L
ASPARTATE AMINOTRANSFERASE [6]: 86.4 u/L
BLOOD UREA NITROGEN [6]: 16.3 mg/dL
CHLORIDE [6]: 108.5 MEQ/L
CHOLESTEROL [6]: 59.4 mg/dL
CREATINE PHOSPHOKINASE [6]: 139.4 u/L
CREATININE [6]: 0.7 mg/dL
GLUCOSE [6]: 120.4 mg/dL
LACTATE DEHYDROGENASE [6]: 85.6 u/L
LIPASE [6]: 22.9 u/L
PHOSPHORUS [6]: 8.66 mg/dL
POTASSIUM [6]: 5.83 MEQ/L
